Legend:
Type in all cases: physicochemical
[1] = Absorption spectrum in ethyl acetate solution (spectrophotometer UV-2400PC)
Description: In consideration of film thickness, the molar absorption coefficient of the specific metal complex compounds-1, -2, -3 and -4 of the invention is preferably as high as possible, and 60,000 or higher is preferable. The maximum absorption wavelength (λmax) thereof is preferably from 520 nm to 580 nm, and more preferably from 530 nm to 570 nm, in order to improve color purity. The maximum absorption wavelength and the molar absorption coefficient are determined by using a spectrophotometer UV-2400PC (manufactured by Shimadzu Corporation).
The molar absorption coefficient (ε) of each of the obtained compounds was measured in an ethyl acetate solution using a spectrophotometer (trade name: UV-2400PC; manufactured by Shimadzu Corporation). The absorbance (Abs) at 450 nm was evaluated by normalizing the absorbance at a maximum absorption wavelength (λmax) to 1.0. […] The measurement results of the absorbance (Abs value), maximum absorption wavelength (λmax), and molar absorption coefficient (ε) are shown in Table 1.
By the method similar to the reaction scheme in Synthesis Example 1 above, the exemplary compounds (dipyrromethene metal complex compounds or tautomers thereof) shown in Table 1 were synthesized. The identification of the compounds and the measurement of the maximum absorption wavelength (λmax) and the molar absorption coefficient (ε) of the compounds were performed similarly to Synthesis Example 1 above.

[2] = Light-fastness of coating film (color difference ΔEab before and after xenon lamp irradiation); details: xenon lamp 20,000 luxes for 10 hours (200,000 lux·h)
Description: A glass substrate having undercoat layer formed by applying the colored resin composition obtained in section 3 above was irradiated with a xenon lamp at an intensity of 20,000 luxes for 10 hours (equivalent to 200,000 lux·h), and the color difference ΔEab between before and after the irradiation was determined. The light-fastness was evaluated according to the following criteria. A smaller ΔEab value indicates better light-fastness.
(§1) A: ΔEab value was less than 6
(§2) B: ΔEab value was from 6 to 10
(§3) C: ΔEab value was more than 10

[3] = Heat resistance of coating film (color difference ΔEab before and after heating); details: 100° C. for 1 hour on hot plate
Description: A glass substrate having undercoat layer formed by applying the colored resin composition obtained in section 3 above was heat-treated at 100° C. for 1 hour using a hot plate, and the color difference (ΔEab) between before and after the heating was determined by using a […] MCPD-1000 (trade name, manufactured by Otsuka Electronics Co., Ltd.). The heat resistance was evaluated according to the following criteria. A smaller AEab value indicates better heat resistance.
as §1, §2, §3

[4] = Storage stability of colored resist solution (precipitation after one month at room temperature); set-up: key: A: No precipitation was observed; B: Slight precipitation was observed; C: Precipitation was observed; details: negative-working colored resist solution, visual precipitation
Text: 9.4 g of the resist solution obtained in section 1 above and 0.35 g of the exemplary compound Ia-12 synthesized above (a compound represented by Formula (4): dipyrromethene complex compound) were mixed and dissolved, whereby a colored resist solution (a negative-working ultraviolet-sensitive colored curable composition) was obtained.
The colored resist solution was stored for one month at room temperature, and then degree of precipitation was visually observed. The storage stability was evaluated according to the following criteria.
A: No precipitation was observed
B: Slight precipitation was observed
C: Precipitation was observed

[5] = Transmittance at 450 nm of the color filter; details: negative-working colored resist, 1.0 μm film; transmittance at λmax normalized to 2%
Description: The colored resist solution obtained in section 3 above was applied to an undercoat layer side of the glass substrate having an undercoat layer obtained in section 2 above by a spin coater such that a film thickness was 1.0 μm. Subsequently, the film was pre-baked at 100° C. for 120 sec, whereby a monochromatic color filter was obtained.
The transmission spectrum of the color filter obtained above was measured, and the transmittance at 450 nm was evaluated according to the following criteria. The transmittance of the color filter at 450 nm was evaluated by correcting (normalizing) the transmittance at the maximum absorption wavelength of the colorant included in the color filter to 2%. A larger transmittance indicates greater transmission of blue light, which indicates favorable magenta or violet color that can be used in a blue filter.
A: Transmittance at 450 nm was 90% or more
B: Transmittance at 450 nm was 80% or more but not more than 90%
C: Transmittance at 450 nm was not more than 80%

Compound | maximum absorption wavelength (λmax) [1] [nm] | molar absorption coefficient (ε) [1] | Abs value at 450 nm when normalized to Abs = 1.0 at λmax [1] | Light-fastness [2] | Heat resistance [3] | Storage stability [4] | Transmittance at 450 nm [5]
Cc1c(C(=O)OC2C(C(C)(C)C)CC(C)CC2C(C)(C)C)c(NC(=O)c2ccc(C(F)(F)F)cc2)[n]2c1C=C1C(c3ccccc3)=C(C#N)C(NC(=O)C(C)Sc3cc(C(=O)O)cc(C(=O)O)c3)=[N+]1[Zn-]2[OH] (stereo not drawn) [Ia-23] | 558 | 83,200 | 0.0099 | A (ΔEab value was less than 6) | A (ΔEab value was less than 6) | A | A (Transmittance at 450 nm was 90% or more)
CC1CC(C(C)(C)C)C(OC(=O)c2c(-c3ccccc3)c3[n](c2NC(=O)c2cc(C(F)(F)F)cc(C(F)(F)F)c2)[Zn-]([OH])[N+]2=C(NC(=O)C(C)Sc4cc(C(=O)O)cc(C(=O)O)c4)C(C#N)=C(c4ccccc4)C2=C3)C(C(C)(C)C)C1 (stereo not drawn) [Ib-41] | 562 | 76,500 | 0.0195 | A (ΔEab value was less than 6) | A (ΔEab value was less than 6) | A | A (Transmittance at 450 nm was 90% or more)
CC1CC(C(C)(C)C)C(OC(=O)C2=C(c3ccccc3)C3=Cc4c(-c5ccccc5)c(C(=O)OC5C(C(C)(C)C)CC(C)CC5C(C)(C)C)c(NC(=O)c5c(F)c(F)c(F)c(F)c5F)[n]4[Zn-]([OH])[N+]3=C2NC(=O)c2c(F)c(F)c(F)c(F)c2F)C(C(C)(C)C)C1 (stereo not drawn) [IIb-40] | 562 | 107,300 | 0.0087 | A (ΔEab value was less than 6) | A (ΔEab value was less than 6) | A | A (Transmittance at 450 nm was 90% or more)
CC1CC(C(C)(C)C)C(OC(=O)c2c(-c3ccccc3)c3[n](c2NC(=O)c2ccc(F)c(F)c2)[Zn-]([OH])[N+]2=C(NC(=O)C(C)Sc4cc(C(=O)O)cc(C(=O)O)c4)C(C#N)=C(c4ccccc4)C2=C3)C(C(C)(C)C)C1 (stereo not drawn) [Ib-35] | 562 | 80,500 | 0.0173 | A (ΔEab value was less than 6) | A (ΔEab value was less than 6) | A | A (Transmittance at 450 nm was 90% or more)
Cc1c(C(=O)OC2C(C(C)(C)C)CC(C)CC2C(C)(C)C)c(NC(=O)c2cccc(C(F)(F)F)c2)[n]2c1C=C1C(c3ccccc3)=C(C#N)C(NC(=O)C(C)Sc3cc(C(=O)O)cc(C(=O)O)c3)=[N+]1[Zn-]2[OH] (stereo not drawn) [Ia-15] | 558 | 91,000 | 0.091 | A (ΔEab value was less than 6) | A (ΔEab value was less than 6) | A | A (Transmittance at 450 nm was 90% or more)
CC1CC(C(C)(C)C)C(OC(=O)C2=C(c3ccccc3)C3=Cc4c(-c5ccccc5)c(C(=O)OC5C(C(C)(C)C)CC(C)CC5C(C)(C)C)c(NC(=O)c5ccc(F)c(F)c5)[n]4[Zn-]([OH])[N+]3=C2NC(=O)c2ccc(F)c(F)c2)C(C(C)(C)C)C1 (stereo not drawn) [IIb-13] | 560 | 106,300 | 0.0107 | A (ΔEab value was less than 6) | A (ΔEab value was less than 6) | A | A (Transmittance at 450 nm was 90% or more)
Cc1c(C(=O)OC2C(C(C)(C)C)CC(C)CC2C(C)(C)C)c(NC(=O)c2cccc(C(F)(F)F)c2)[n]([Zn][OH])c1C=C1N=C(NC(=O)C(C)(C)C)C(C#N)=C1c1ccccc1 (stereo not drawn) [Ia-14] | 560 | 87,600 | 0.0112 | A (ΔEab value was less than 6) | A (ΔEab value was less than 6) | A | A (Transmittance at 450 nm was 90% or more)
CC1CC(C(C)(C)C)C(OC(=O)c2c(-c3ccccc3)c(C=C3N=C(NC(=O)C(C)(C)C)C(C#N)=C3c3ccccc3)[n]([Zn][OH])c2NC(=O)c2cccc(C(F)(F)F)c2)C(C(C)(C)C)C1 (stereo not drawn) [Ib-14] | 561 | 85,200 | 0.0105 | A (ΔEab value was less than 6) | A (ΔEab value was less than 6) | A | A (Transmittance at 450 nm was 90% or more)
CC1=C(C(=O)OC2C(C(C)(C)C)CC(C)CC2C(C)(C)C)C(NC(=O)c2cc(C(F)(F)F)cc(C(F)(F)F)c2)=[N+]2C1=Cc1c(C)c(C(=O)OC3C(C(C)(C)C)CC(C)CC3C(C)(C)C)c(NC(=O)c3cc(C(F)(F)F)cc(C(F)(F)F)c3)[n]1[Zn-]2[OH] (stereo not drawn) [IIa-14] | 551 | 100,100 | 0.0114 | A (ΔEab value was less than 6) | A (ΔEab value was less than 6) | A | A (Transmittance at 450 nm was 90% or more)
CC1CC(C(C)(C)C)C(OC(=O)c2c(-c3ccccc3)c3[n](c2NC(=O)c2cccc(C(F)(F)F)c2)[Zn-]([OH])[N+]2=C(NC(=O)C(C)SCCCS(=O)(=O)[O-])C(C#N)=C(c4ccccc4)C2=C3)C(C(C)(C)C)C1.[Na+] (stereo not drawn) [Ib-20] | 563 | 88,700 | 0.0142 | B (ΔEab value was from 6 to 10) | B (ΔEab value was from 6 to 10) | A | A (Transmittance at 450 nm was 90% or more)
CC1CC(C(C)(C)C)C(OC(=O)c2c(-c3ccccc3)c(C=C3N=C(NC(=O)CCCSc4cc(C(=O)O)cc(C(=O)O)c4)C(C#N)=C3c3ccccc3)[n]([Zn][OH])c2NC(=O)c2cc(F)cc(F)c2F)C(C(C)(C)C)C1 (stereo not drawn) [Ib-59] | 559 | 93,900 | 0.0083 | A (ΔEab value was less than 6) | A (ΔEab value was less than 6) | A | A (Transmittance at 450 nm was 90% or more)
CC1CC(C(C)(C)C)C(OC(=O)C2=C(c3ccccc3)C3=Cc4c(-c5ccccc5)c(C(=O)OC5C(C(C)(C)C)CC(C)CC5C(C)(C)C)c(NC(=O)c5c(F)c(F)c(C(=O)O)c(F)c5F)[n]4[Zn-]([OH])[N+]3=C2NC(=O)c2c(F)c(F)c(C(=O)O)c(F)c2F)C(C(C)(C)C)C1 (stereo not drawn) [IIb-38] | 561 | 105,900 | 0.0099 | A (ΔEab value was less than 6) | A (ΔEab value was less than 6) | A | A (Transmittance at 450 nm was 90% or more)
